The text below walks through data of PubChem BioAssay AID330 (DTP/NCI, 2004).

The subject of this test is P388 leukemia ip, CD2F1 mice, survival T/C. The experiment in a line: NCI In Vivo Anticancer Drug Screen. Data for tumor model P388 Leukemia (intraperitoneal) in CD2F1 (CDF1) mice. Conditions: endpoint: median survival time, higher = longer survival. Put shortly: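 Mice carrying the transplanted tumor received test compound or vehicle. Survival was recorded in each group, and the value is the treated-group measurement divided by that of the vehicle-treated control group.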

Setting [1] is: dose: 50.0 mg/kg/injection, schedule: Q01DX005 (ip), vehicle: saline with Tween-80.
[2] abbreviates: dose: 15.0 mg/kg/injection, schedule: Q01DX005 (ip), vehicle: saline with Tween-80.
Setting [3] is: dose: 60.0 mg/kg/injection, schedule: Q01DX005 (ip), vehicle: saline with Tween-80.
The mark [4] stands for this setting: dose: 100.0 mg/kg/injection, schedule: Q01DX005 (ip), vehicle: saline with Tween-80.
[5] abbreviates: dose: 200.0 mg/kg/injection, schedule: Q01DX005 (ip), vehicle: saline with Tween-80.
Where [6] appears, read: dose: 50.0 mg/kg/injection, schedule: Q01DX009 (ip), vehicle: saline with Tween-80.
The mark [7] stands for this setting: dose: 100.0 mg/kg/injection, schedule: Q01DX009 (ip), vehicle: saline with Tween-80.
[8] abbreviates: dose: 200.0 mg/kg/injection, schedule: Q01DX009 (ip), vehicle: saline with Tween-80.

Several values for one entry are separate records, joined by “and”; a condition that tells them apart may be missing. Identical values can stand only once. Toxic doses and inconclusive results are not listed.

`Cc1ccc(S(=O)(=O)N/N=C/c2cc([N+](=O)[O-])ccc2O)cc1`: the T/C (dose: 12.5 mg/kg/injection, schedule: Q01DX005 (ip), vehicle: distilled water + Tween-80) is 93 % of control; the T/C (dose: 25.0 mg/kg/injection, schedule: Q01DX005 (ip), vehicle: distilled water + Tween-80) is 100 % of control; the T/C (dose: 50.0 mg/kg/injection, schedule: Q01DX005 (ip), vehicle: distilled water + Tween-80) was 112 % of control; the T/C (dose: 100.0 mg/kg/injection, schedule: Q01DX005 (ip), vehicle: distilled water + Tween-80) was 105 % of control.

Turning to `CSc1nc(Cl)c(Cl)c(C(F)(F)F)n1`, the T/C under setting [1] is 103 % of control.

Regarding `COc1ccc(/C=N/NC(=O)c2ccncc2)cc1F`, the T/C is 100 % of control under setting [2]; 99 % of control (dose: 30.0 mg/kg/injection, schedule: Q01DX005 (ip), vehicle: saline with Tween-80); 101 % of control and 88 % of control under setting [3]; 88 % of control (dose: 120.0 mg/kg/injection, schedule: Q01DX005 (ip), vehicle: saline with Tween-80); 95 % of control (dose: 240.0 mg/kg/injection, schedule: Q01DX005 (ip), vehicle: saline with Tween-80).

Turning to `CCCCCCC[CH2][Sn]([S][Sn]([CH2]CCCCCCC)([c]1ccccc1)[c]1ccccc1)([c]1ccccc1)[c]1ccccc1`, the T/C was 101 % of control (dose: 6.25 mg/kg/injection, schedule: Q01DX009 (ip), vehicle: saline); 98 % of control (dose: 12.5 mg/kg/injection, schedule: Q01DX009 (ip), vehicle: saline); 101 % of control (dose: 25.0 mg/kg/injection, schedule: Q01DX009 (ip), vehicle: saline); 86 % of control (dose: 200.0 mg/kg/injection, schedule: Q01DX009 (ip), vehicle: saline).

For `NC(=O)C1C2CC3C(C2O)C31C(N)=O` (stereo not given), the T/C (dose: 50.0 mg/kg/injection, schedule: Q01DX005 (ip), vehicle: saline) was 91 % of control; the T/C (dose: 100.0 mg/kg/injection, schedule: Q01DX005 (ip), vehicle: saline) was 92 % of control; the T/C (dose: 200.0 mg/kg/injection, schedule: Q01DX005 (ip), vehicle: saline) is 98 % of control.

As for `CCCCCCCN(CCCCCCC)C(=N)c1ccnc2ccccc12`, the T/C was 101 % of control (dose: 6.25 mg/kg/injection, schedule: Q01DX005 (ip), vehicle: Klucel (hydroxypropylcellulose) (HPC)); 99 % of control (dose: 12.5 mg/kg/injection, schedule: Q01DX005 (ip), vehicle: Klucel (hydroxypropylcellulose) (HPC)); 100 % of control (dose: 25.0 mg/kg/injection, schedule: Q01DX005 (ip), vehicle: Klucel (hydroxypropylcellulose) (HPC)).

Consider `COc1ccc2sc3cc(Cl)ccc3c(=O)c2c1`, for which the T/C (dose: 1.87 mg/kg/injection, schedule: Q01DX005 (ip), vehicle: saline with Tween-80) was 89 % of control; the T/C (dose: 3.75 mg/kg/injection, schedule: Q01DX005 (ip), vehicle: saline with Tween-80) is 90 % of control; the T/C under setting [2] was 89 % of control and 90 % of control; the T/C under setting [3] was 88 % of control.

Turning to `CCCCCC(CSCC)C(=O)/C=C/c1ccc(Cl)c(Cl)c1` (stereo not given), the T/C by setting is: (dose: 12.5 mg/kg/injection, schedule: Q01DX009 (ip), vehicle: distilled water + Tween-80) 101 % of control; (dose: 25.0 mg/kg/injection, schedule: Q01DX009 (ip), vehicle: distilled water + Tween-80) 105 % of control; (dose: 50.0 mg/kg/injection, schedule: Q01DX009 (ip), vehicle: distilled water + Tween-80) 103 % of control and 104 % of control; (dose: 100.0 mg/kg/injection, schedule: Q01DX009 (ip), vehicle: distilled water + Tween-80) 105 % of control and 109 % of control; (dose: 200.0 mg/kg/injection, schedule: Q01DX009 (ip), vehicle: distilled water + Tween-80) 120 % of control and 124 % of control; (dose: 400.0 mg/kg/injection, schedule: Q01DX009 (ip), vehicle: distilled water + Tween-80) 119 % of control.

As for `CC(O)C(O)C(O)C(=O)NCc1ccccc1` (stereo not given), the T/C by setting is: under setting [1], 100 % of control; under setting [4], 94 % of control; under setting [5], 99 % of control.

As for `Cc1nc(N)[nH]c(=O)c1CCCN=Cc1ccccc1`, the T/C runs as follows: (dose: 60.0 mg/kg/injection, schedule: Q01DX005 (ip), vehicle: Klucel (hydroxypropylcellulose) (HPC)) 108 % of control; (dose: 120.0 mg/kg/injection, schedule: Q01DX005 (ip), vehicle: Klucel (hydroxypropylcellulose) (HPC)) 105 % of control; (dose: 240.0 mg/kg/injection, schedule: Q01DX005 (ip), vehicle: Klucel (hydroxypropylcellulose) (HPC)) 96 % of control.

Consider `CN1CCN(C2=NS(=O)(=O)c3cc(Cl)ccc3N2)CC1`, for which the T/C is 104 % of control under setting [6], 104 % of control under setting [7] and 91 % of control under setting [8].

Turning to `CC1(C)CC2C=C(C=O)C3(C=O)CC3(C)C2C1` (stereo not given), the T/C by setting is: (dose: 0.78 mg/kg/injection, schedule: Q01DX009 (ip), vehicle: Klucel (hydroxypropylcellulose) (HPC)) 96 % of control; (dose: 1.56 mg/kg/injection, schedule: Q01DX009 (ip), vehicle: Klucel (hydroxypropylcellulose) (HPC)) 112 % of control; (dose: 3.12 mg/kg/injection, schedule: Q01DX009 (ip), vehicle: Klucel (hydroxypropylcellulose) (HPC)) 111 % of control; (dose: 6.25 mg/kg/injection, schedule: Q01DX009 (ip), vehicle: Klucel (hydroxypropylcellulose) (HPC)) 111 % of control.

With `O=C(OC12CCCCC1C1(CCCCC1)N=N2)c1ccccc1` (stereo not given), the T/C (dose: 12.5 mg/kg/injection, schedule: Q01DX009 (ip), vehicle: saline with Tween-80) is 105 % of control; the T/C (dose: 25.0 mg/kg/injection, schedule: Q01DX009 (ip), vehicle: saline with Tween-80) is 99 % of control; the T/C under setting [6] was 111 % of control; the T/C under setting [7] is 99 % of control; the T/C under setting [8] is 97 % of control.

Turning to `CS(=O)(=O)OCCOS(C)(=O)=O`, the T/C reads like this: (dose: 50.0 mg/kg/injection, schedule: Q01DX009 (ip), vehicle: saline) 111 % of control; (dose: 100.0 mg/kg/injection, schedule: Q01DX009 (ip), vehicle: Klucel (hydroxypropylcellulose) (HPC)) 92 % of control; (dose: 100.0 mg/kg/injection, schedule: Q01DX009 (ip), vehicle: saline) 123 % of control; (dose: 400.0 mg/kg/injection, schedule: Q01DX009 (ip), vehicle: saline) 163 % of control.

As for `COC1=C(C)C(=O)c2c(C(C)C)cc(O)c(C=O)c2C1=O`, the T/C is 100 % of control (dose: 3.0 mg/kg/injection, schedule: Q01DX009 (ip), vehicle: Klucel (hydroxypropylcellulose) (HPC)); 100 % of control (dose: 6.0 mg/kg/injection, schedule: Q01DX009 (ip), vehicle: Klucel (hydroxypropylcellulose) (HPC)); 109 % of control (dose: 12.0 mg/kg/injection, schedule: Q01DX009 (ip), vehicle: Klucel (hydroxypropylcellulose) (HPC)); 109 % of control (dose: 24.0 mg/kg/injection, schedule: Q01DX009 (ip), vehicle: Klucel (hydroxypropylcellulose) (HPC)).

On to `CCC(C)Sc1nc(N)nc2c1ncn2C1OC(CO)C(O)C1O` (stereo not given), for which the T/C by setting is: (dose: 44.0 mg/kg/injection, schedule: Q01DX009 (ip), vehicle: saline with Tween-80) 100 % of control; (dose: 66.0 mg/kg/injection, schedule: Q01DX009 (ip), vehicle: saline with Tween-80) 100 % of control; under setting [7], 95 % of control; (dose: 150.0 mg/kg/injection, schedule: Q01DX009 (ip), vehicle: saline with Tween-80) 104 % of control; (dose: 176.0 mg/kg/injection, schedule: Q04DX003 (ip), vehicle: saline with Tween-80) 114 % of control; under setting [8], 120 % of control. Besides, the T/C (dose: 264.0 mg/kg/injection, schedule: Q04DX003 (ip), vehicle: saline with Tween-80) was 123 % of control.

Take `O=[N+]([O-])c1cccc2c1ccc1nonc12`: the T/C under setting [1] was 99 % of control, the T/C under setting [4] was 94 % of control and the T/C under setting [5] was 97 % of control.

As to `NNC(=O)c1ccc(OCc2nc3ccccc3[nH]2)cc1`, the T/C (dose: 3.12 mg/kg/injection, schedule: Q01DX005 (ip), vehicle: saline with Tween-80) was 100 % of control; the T/C (dose: 6.25 mg/kg/injection, schedule: Q01DX005 (ip), vehicle: saline with Tween-80) is 100 % of control; the T/C (dose: 12.5 mg/kg/injection, schedule: Q01DX005 (ip), vehicle: saline with Tween-80) is 98 % of control; the T/C (dose: 25.0 mg/kg/injection, schedule: Q01DX005 (ip), vehicle: saline with Tween-80) was 94 % of control.
